In patent US12570612B2, “Substituted nitrogen heterocyclic compound and anesthetic effect thereof” (priority 2019, dated 2026):
Entries after “also recorded” stand apart in the source; their conditions may differ. Like-named read-outs stand apart in the source and are kept apart here.

Legend:
[1] = system: Sprague-Dawley rats; assay: animal or person; assay type: in vivo
From the text: Evaluating indicator: The end point of anesthesia: LORR was used as the end point of anesthesia; General anesthesia effect: the disappearance of forepaw righting reflex in rats lasting for 30 seconds is taken as the index of general anesthesia effect; Anesthesia recovery index: the recovery of rat forepaw righting reflex was used as the index of anesthesia recovery.

[2] = system: Sprague-Dawley rats; assay: animal or person; assay type: in vivo; remark: listed apart in the source
From the text: Evaluating indicator: The end point of anesthesia: the disappearance of forepaw righting reflex (lorr) was used as the end point of anesthesia; General anesthesia effect: the disappearance of forepaw righting reflex in rats lasting for 30 seconds is taken as the index of general anesthesia effect; Anesthesia recovery index: the recovery of rat forepaw righting reflex was used as the index of anesthesia recovery.

[3] = system: Sprague-Dawley rats; assay: Pharmacological characteristics at equivalent doses (2ED50), Group A compounds; assay type: in vivo; details: 2ED50, tail vein
[4] = system: circulatory function of rats; assay: Circulatory function of rats (MAP, HR) by implanted telemetry, Group D compounds; details: 2ED50, rats, FIG. 19-22
From the text: (§3) First, the animal model was established, and the left ventricular catheter, abdominal aorta catheter and electrocardiogram wire were placed. At least one week after the operation, the signal can be collected to start the test. At the beginning of the experiment, after the placement of the indwelling needle in the tail vein of rats, connect the extension tube, put the rats together with the feeding cage on the signal receiver and start collecting data. […] All compounds or drugs were given at a constant volume of 0.6 ml at a uniform rate of 0.1 ml/s.
Evaluation indexes: Collect the blood pressure, heart rate and other data of rats during and 15 minutes after administration, and judge the effect of the compound of the invention on the circulatory function of rats with the indexes of mean arterial pressure (MAP) and heart rate (HR).

[5] = system: Sprague-Dawley rats; assay: animal or person
Description: (§1) Adult male Sprague-Dawley rats (250-300 g) were selected for the experiment. […] The anesthesia effects of the compounds were assessed in rats using a LORR assay and a period >30 s was considered as an indicator of general anesthesia.

[6] = system: circulatory function of rats; assay: Circulatory function of rats (MAP, HR) by implanted telemetry, Group C compounds; details: 2ED50, rats, FIG. 13-16
From the text: as §3

[7] = system: H295R cell line; assay: Adrenocortical function in vitro test: secretion of cortisol and corticosterone, Group B compounds; assay type: cell-based; details: H295R cells; for EC50: Homo sapiens, NCI-H295R, 0.1-10000 nM, HPLC-MS/MS
[8] = system: Sprague-Dawley rats; assay: Pharmacological effect and adverse reactions under the equivalent dose (2ED50), Group C compounds; assay type: in vivo; details: rat, in vivo
From the text: (§2) Evaluation index: onset time: from the completion of drug injection to the disappearance of forepaw righting reflex in rats; Duration of anesthesia: the time from the disappearance of rat forepaw righting reflex to the recovery of rat forepaw righting reflex; Recovery time of anesthesia: the time from the […] to complete recovery;

[9] = system: circulatory function of rats; details: rat, in vivo
[10] = system: Sprague-Dawley rats; assay: animal or person; remark: listed apart in the source
Description: as §1

[11] = system: H295R cell line; assay: Adrenocortical function in vitro test: secretion of cortisol and corticosterone, Group A compounds; assay type: cell-based; details: H295 cells; for EC50: Homo sapiens, 0.1-10000 nM, HPLC-MS/MS
[12] = system: Sprague-Dawley rats; assay: Pharmacological effect and adverse reactions under the equivalent dose (2ED50), Group D compounds; assay type: in vivo; details: rat, in vivo
From the text: as §2

[13] = system: circulatory function of rats; details: rat, in vivo; remark: listed apart in the source
Description: First, animal models were established. […] At least one week after surgery, data were recorded.
Finally, the pharmacological effects, adverse reactions, and behavioral manifestations of the rats were observed and recorded
After data acquisition, the test was stopped.

[14] = male, Sprague-Dawley, rat, in vivo
[15] = read-out: EC50 (Corticosterone)

## CC(C)c1cccc(C(C)C)c1O [Propofol, propofol, reference compound]
[1]; Rattus norvegicus
  ED50: 5.01 mg/kg
[1]; [14]
  Minimal lethal dose: 22.6 mg/kg
[1]; rats
  Approximate therapeutic index: 4.0
[2]; Rattus norvegicus
  ED50: 5.01 mg/kg
[2]; [14]
  Minimal lethal dose: 22.6 mg/kg
[2]; rats
  Approximate therapeutic index: 4.0
[3]
  Onset time: 0.19 ± 0.03 min
  Righting reflex duration: 8.36 ± 2 min
[3]; (animals affected/animals)
  Types and incidence of adverse reactions: Intermittent Tremor(6/8),; also recorded: Bucking (5/8),; also recorded: Tongue stretching(4/8),; also recorded: Forelimb rigidity (2/8),; also recorded: Hindlimb rigidity(2/8)
[4]
  effect on the circulatory function (MAP, HR): significant inhibition on the circulatory system function
[5]; Rattus norvegicus
  ED50: 5.51 mg/kg
[5]; [14]
  Minimal lethal dose: 28 mg/kg
[5]; rats
  Approximate therapeutic index: 5
[6]
  effect on the circulatory function (MAP, HR): significant inhibition on the circulatory system function
[7]
  Corticosterone as an indicator to determine the presence of inhibition: 0
  Cortisol as an indicator to determine the presence of inhibition: 0
[7]; [15]
  EC50: > 10 µM
[7]; read-out: EC50 (Cortisol)
  EC50: > 10 µM
[8]
  Adverse reaction: Convulsions: 0
  Adverse reaction: Cough, broken-winded: 0
  Adverse reaction: Euphoria: 0
  Adverse reaction: Slower breathing, Tetany convulsion: 2
  Adverse reaction: Systemic stiffness, Convulsions, Opisthotonus: 0
  Adverse reaction: Tongue stretching: 0
  Adverse reaction: Tremor: 0
  Adverse reaction: the four limbs rigidity: 2
  Onset time: <30 s
  Righting reflex duration: 8.53 ± 1.52 min
  Sedation duration: 14.77 ± 3.50 min
[9]
  inhibitory effect on the circulatory function (MAP, HR): significant inhibition of the circulatory function
[10]; Rattus norvegicus
  ED50: 5.51 mg/kg
[10]; [14]
  Minimal lethal dose: 28 mg/kg
[10]; rats
  Approximate therapeutic index: 5
[11]
  Corticosterone as an indicator to determine the presence of inhibition: 0
  Cortisol as an indicator to determine the presence of inhibition: 0
[11]; [15]
  EC50: > 10 µM
[11]; read-out: EC50 (Cortisol)
  EC50: > 10 µM
[12]
  Adverse reaction: Convulsions: 0
  Adverse reaction: Cough, broken-winded: 0
  Adverse reaction: Euphoria: 0
  Adverse reaction: Four limbs rigidity: 1
  Adverse reaction: Slower breathing, Tetany convulsion: 2
  Adverse reaction: Systemic stiffness, Convulsions, Opisthotonus: 0
  Adverse reaction: Tongue stretching: 0
  Adverse reaction: Tremor: 2
  Onset time: <30 s
  Righting reflex duration: 8.53 ± 1.52 min
  Sedation duration: 14.77 ± 3.50 min
[13]
  inhibitory effect on the circulatory function (MAP, HR): significant inhibition of the circulatory function
